Reference: article PMC3601546 (Bioorganic & medicinal chemistry letters, 2012)

Molecular target: T1, human NPBWR1 (Homo sapiens, UniProt P48145)
T1 sequence (P48145 1-328): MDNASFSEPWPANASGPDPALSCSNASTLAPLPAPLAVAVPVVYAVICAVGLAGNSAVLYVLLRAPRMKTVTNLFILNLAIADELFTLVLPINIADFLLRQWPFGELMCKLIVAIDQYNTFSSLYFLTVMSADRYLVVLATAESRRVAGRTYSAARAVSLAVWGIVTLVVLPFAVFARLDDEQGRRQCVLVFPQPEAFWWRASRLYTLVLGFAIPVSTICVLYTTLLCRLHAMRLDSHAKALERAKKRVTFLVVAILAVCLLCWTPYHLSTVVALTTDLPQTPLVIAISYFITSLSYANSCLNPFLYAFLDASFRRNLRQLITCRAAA
Assay: NPBWR1 antagonist calcium release
Format: cell-based
Conditions: not given

Q: How did the “NPBWR1 antagonist activity in words” value turn out when COc1ccc(Oc2ccnn(-c3ccc(C(C)C)cc3)c2=O)cc1 [9o] was run?
A: The value was “Total loss of potency”.

Q: Which “NPBWR1 antagonist activity in words” value does the source give for COc1ccc(Oc2c(NC(C)=O)cnn(-c3ccc(C(C)C)cc3)c2=O)cc1 [9q] here?
A: The value was “Total loss of potency”.

Q: COc1ccc(Oc2c(-c3ccccc3)cnn(-c3ccc(C)cc3)c2=O)cc1 [9d] was tested. Which “NPBWR1 antagonist activity in words” value did it give?
A: Its value is “drastic loss in potency”.

Q: With COc1ccc(Oc2c(C(=O)O)cnn(-c3ccc(C(C)C)cc3)c2=O)cc1 [9m] as the molecule, how does the “NPBWR1 antagonist activity in words” value read?
A: Its value is “inactive”.

Q: For COc1ccc(Oc2c(N)cnn(-c3ccc(C(C)C)cc3)c2=O)cc1 [9p], which “NPBWR1 antagonist activity in words” value is on record?
A: The value was “Total loss of potency”.

Q: How did the “NPBWR1 antagonist activity in words” value turn out when COc1ccc(Oc2c(Cl)c(C(=O)O)nn(-c3ccc(C(C)C)cc3)c2=O)cc1 [9t] was run?
A: The value was “Total loss of activity”.

Same assay, conditions: ratio of NPBWR1 IC50 vs 1a

Q: With Cc1ccc(-n2ncc(Cl)c(Oc3ccc(C(F)(F)F)cc3)c2=O)cc1 [6e] as the molecule, how does the “fold more potent than the hit 1a” value read?
A: The value was 2- to 3 fold.

Q: How did the “fold more potent than the hit 1a” value turn out when COc1ccc(Oc2c(Cl)cnn(-c3ccc(C)c(C)c3)c2=O)cc1 [1s] was run?
A: The value was “~ fourfold”.

Same assay, conditions: ratio of NPBWR1 IC50 vs 1j

Q: CC(C)c1ccc(-n2ncc(Cl)c(Oc3ccc(OC(F)(F)F)cc3)c2=O)cc1 [6j] was tested. Which “fold less potent than 1j” value did it give?
A: The value was ~45 fold.

Q: How did the “fold less potent than 1j” value turn out when COc1ccc(Oc2c(C)cnn(-c3ccc(C(C)C)cc3)c2=O)cc1 [9g] was run?
A: Its value is ~ 28 fold.

Q: With C=Cc1cnn(-c2ccc(C(C)C)cc2)c(=O)c1Oc1ccc(OC)cc1 [9h] as the molecule, how does the “fold less potent than 1j” value read?
A: Its value is ~9 fold.

Q: For CC(C)c1ccc(-n2ncc(Cl)c(Oc3ccc(O)cc3)c2=O)cc1 [6i], which “fold less potent than 1j” value is on record?
A: Its value is ~ 18 fold.

Q: With COC(=O)c1cnn(-c2ccc(C(C)C)cc2)c(=O)c1Oc1ccc(OC)cc1 [9n] as the molecule, how does the “fold less potent than 1j” value read?
A: The value was 10 fold.

Q: For COC(=O)c1nn(-c2ccc(C(C)C)cc2)c(=O)c(Oc2ccc(OC)cc2)c1Cl [9u], which “fold less potent than 1j” value is on record?
A: Its value is 13 fold.

Q: Which “fold less potent than 1j” value does the source give for COc1ccc(Oc2c(C=O)cnn(-c3ccc(C(C)C)cc3)c2=O)cc1 [9j] here?
A: The value was ~ 23 fold.

Q: How did the “fold less potent than 1j” value turn out when CC(C)c1ccc(-n2ncc(Cl)c(Oc3ccc(C(=O)CN)cc3)c2=O)cc1 [6l] was run?
A: Its value is “eightfold”.

Q: With COc1ccc(Oc2c(C#N)cnn(-c3ccc(C(C)C)cc3)c2=O)cc1 [9l] as the molecule, how does the “fold less potent than 1j” value read?
A: Its value is ~ 15 fold.

Q: How did the “fold less potent than 1j” value turn out when CCOC(=O)c1nn(-c2ccc(C(C)C)cc2)c(=O)c(Oc2ccc(OC)cc2)c1Cl [9s] was run?
A: The value was 13 fold.

Q: How did the “fold less potent than 1j” value turn out when COc1ccc(Oc2c(CO)cnn(-c3ccc(C(C)C)cc3)c2=O)cc1 [9k] was run?
A: The value was ~ 21 fold.

Same assay, conditions: ratio of NPBWR1 IC50 vs 1t

Q: Which “fold decrease in potency compared to 1t” value does the source give for COc1ccc(Oc2c(Cl)c(OC)nn(-c3cccc(C)c3)c2=O)cc1 [9r] here?
A: Its value is ~ 3.5 fold.

Same assay, conditions: ratio of NPBWR1 IC50 vs 9a

Q: COc1ccc(Oc2c(C3CC3)cnn(-c3ccc(C)cc3)c2=O)cc1 [9f] was tested. Which “fold loss in potency compared to 9a” value did it give?
A: The value was “~ eightfold”.

Tested on: Ricerca panel of 35 therapeutically relevant off-target proteins including GPCRs, enzymes and ion channels
Assay: Selectivity profile against Ricerca panel of 35 off-target proteins
Conditions: at 10 μM

Q: COc1ccc(Oc2c(Cl)cnn(-c3cc(C)cc(C)c3)c2=O)cc1 [1z, 5-chloro-2-(3,5-dimethylphenyl)-4-(4-methoxyphenoxy)pyridazin-3(2H)-one] was tested. Which “stimulation/inhibition against the pool of tested off-targets” value did it give?
A: Its value is < 50%.

Tested on: HT29 cells
Assay: Viability assay on HT29 cells
Format: cell-based
Conditions: final tested concentration of 20 μM

Q: With COc1ccc(Oc2c(Cl)cnn(-c3cc(C)cc(C)c3)c2=O)cc1 [1z, 5-chloro-2-(3,5-dimethylphenyl)-4-(4-methoxyphenoxy)pyridazin-3(2H)-one] as the molecule, how does the “cytotoxicity in viability assay” value read?
A: Its value is “non cytotoxic”.
